# Reference: patent US20260337246A1, “METHODS FOR TREATING OBESITY” (Zealand Pharma A/S, priority 2022, published 2026)
# Test: Predicted half-life in humans
compound,measurement,value
CC[C@H](C)[C@H](NC(=O)[C@H](Cc1ccccc1)NC(=O)[C@H](C)NC(=O)[C@H](CCC(N)=O)NC(=O)[C@H](C)NC(=O)[C@H](C)NC(=O)[C@H](CCCCNC(=O)COCCOCCNC(=O)COCCOCCNC(=O)CN1CCN(C(=O)CCCCCCCCCCCCCCCCCCC(=O)O)CC1)NC(=O)[C@H](CCCCN)NC(=O)[C@H](CC(=O)O)NC(=O)[C@H](CC(C)C)NC(=O)[C@H](CCC(=O)O)NC(=O)[C@@H](NC(=O)[C@H](CO)NC(=O)[C@H](Cc1ccc(O)cc1)NC(=O)[C@H](CC(=O)O)NC(=O)[C@H](CO)NC(=O)[C@@H](NC(=O)[C@H](Cc1ccccc1)NC(=O)[C@@H](NC(=O)CNC(=O)[C@H](CCC(=O)O)NC(=O)C(C)(C)NC(=O)[C@@H](N)Cc1ccc(O)cc1)[C@@H](C)O)[C@@H](C)CC)[C@@H](C)CC)C(=O)N[C@@H](CCC(=O)O)C(=O)N[C@@H](Cc1c[nH]c2ccccc12)C(=O)N[C@@H](CC(C)C)C(=O)N[C@@H](CC(C)C)C(=O)N[C@@H](C)C(=O)N[C@@H](CCC(N)=O)C(=O)NCC(=O)N1CCC[C@H]1C(=O)N[C@@H](CO)C(=O)N[C@@H](CO)C(=O)NCC(=O)N[C@@H](C)C(=O)N1CCC[C@H]1C(=O)N1CCC[C@H]1C(=O)N1CCC[C@H]1C(=O)N[C@@H](CO)C(N)=O [Compound 41],predicted half-life (in words),half-life supporting once-weekly dosing in humans
